{"source": "patent US9683986B2", "about": "“Treatment of cancer by inhibition of the MYD88/ERK MAP kinase interaction” (CENTRE LEON BERARD, priority 2011, dated 2017)", "system": "HCT116 p53+/+ or p53−/− tumor", "assay": "Subcutaneous HCT116 shMyD88 tumors in nude mice, doxycyclin-induced MyD88 extinction", "format": "in vivo", "settings": "HCT116 cells stably expressing doxycyclin-inducible MyD88 shRNA, treated with doxycyclin", "description": "Then we generated HCT116 p53+/+ or p53−/− stably expressing a doxycyclin-inducible MyD88 shRNA. These cell lines were subcutaneously implanted in nude mice, then the mice were treated or not with doxycyclin to induce MyD88 extinction in the tumor.", "data": [{"substance": "MyD88 shRNA: doxycyclin-inducible MyD88 shRNA stably expressed in HCT116 cells (sense CGGACCCTAAATCCAATAGAAA; antisense TTTCTATTGGATTTAGGGTCCT)", "values": [{"measurement": "Tumor growth in vivo", "value": "blocks tumor growth in vivo"}]}]}
